Like-named read-outs stand apart in the source and are kept apart here.
Key:
rice (Oryra sativa) = assay: Test B flooded paddy test; format: in vivo; settings: Oryza sativa, 250 g ai/ha, Flood
In short: (§1)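 Plants at 2-leaf stage flooded to 3 cm above soil, with compounds applied directly to paddy water and that depth maintained. Plants kept in greenhouse 13–15 d. Visual rating versus controls on a 0 (no effect) to 100 (complete control) scale.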

[1] = test system: barnyardgrass (Echinochloa crus-galli); assay: Test B flooded paddy test; format: in vivo; settings: Echinochloa crus-galli, 250 g ai/ha, Flood
In short: as §1

[2] = test system: ducksalad (Heteranthera limosa); assay: Test B flooded paddy test; format: in vivo; settings: Heteranthera limosa, 250 g ai/ha, Flood
In short: as §1

[3] = test system: sedge, umbrella (small-flower umbrella sedge, Cyperus difformis); assay: Test B flooded paddy test; format: in vivo; settings: Cyperus difformis, 250 g ai/ha, Flood
In short: as §1

[4] = 0 to 100 scale where 0 is no effect and 100 is complete control, read-out: Rice plant response rating
[5] = 0 to 100 scale where 0 is no effect and 100 is complete control, read-out: Barnyardgrass plant response rating
[6] = 0 to 100 scale where 0 is no effect and 100 is complete control, read-out: Ducksalad plant response rating
[7] = 0 to 100 scale where 0 is no effect and 100 is complete control, read-out: Sedge, Umbrella plant response rating
[8] = scale of 0 to 100 where 0 is no effect and 100 is complete control, read-out: Rice plant response rating
[9] = scale of 0 to 100 where 0 is no effect and 100 is complete control, read-out: Barnyardgrass plant response rating
[10] = scale of 0 to 100 where 0 is no effect and 100 is complete control, read-out: Ducksalad plant response rating
[11] = scale of 0 to 100 where 0 is no effect and 100 is complete control, read-out: Sedge, Umbrella plant response rating

| melting point [°C] | Structure (SMILES) | pest or weed control at 250 g/ha (rice (Oryra sativa); [4]) [%] | pest or weed control at 250 g/ha [1, 5] [%] | pest or weed control at 250 g/ha [2, 6] [%] | pest or weed control at 250 g/ha [3, 7] [%] | pest or weed control at 250 g/ha (rice (Oryra sativa); [8]) [%] | pest or weed control at 250 g/ha [1, 9] [%] | pest or weed control at 250 g/ha [2, 10] [%] | pest or weed control at 250 g/ha [3, 11] [%] | pest or weed control at 250 g/ha (rice (Oryra sativa); 360 h, visually evaluated after 13 to 15 d, read-out: Plant response rating, Rice (0 to 100 scale where 0 is no effect and 100 is complete control)) [%] | pest or weed control at 250 g/ha ([1]; 360 h, visually evaluated after 13 to 15 d, read-out: Plant response rating, Barnyardgrass (0 to 100 scale where 0 is no effect and 100 is complete control)) [%] | pest or weed control at 250 g/ha ([2]; 360 h, visually evaluated after 13 to 15 d, read-out: Plant response rating, Ducksalad (0 to 100 scale where 0 is no effect and 100 is complete control)) [%] | pest or weed control at 250 g/ha ([3]; 360 h, visually evaluated after 13 to 15 d, read-out: Plant response rating, Sedge, Umbrella (0 to 100 scale where 0 is no effect and 100 is complete control)) [%] |
| --- | --- | --- | --- | --- | --- | --- | --- | --- | --- | --- | --- | --- | --- |
| 86 to 89 | O=C1NCC[C@H](c2ccc(Cl)cc2)[C@H]1C(=O)Nc1cccc(F)c1F [Compound 795] | – | – | – | – | 0 | 0 | 70 | 0 | – | – | – | – |
| 133 to 137 | C/C=C/C1CNC(=O)C1C(=O)Nc1ccccc1F (stereo not drawn) [Compound 792] | – | – | – | – | 0 | 0 | 0 | 0 | – | – | – | – |
| 111 to 142 | O=C1NC[C@H](c2cncs2)[C@H]1C(=O)Nc1cccc(F)c1F [Compound 1336] | – | – | – | – | – | – | – | – | 0 | 0 | 40 | 0 |
| 227 to 231 | O=C1NC[C@H](c2cnc(C(F)(F)F)nc2)[C@H]1C(=O)Nc1ccccc1F [Compound 741] | – | – | – | – | 0 | 0 | 90 | 40 | – | – | – | – |

The remaining lines, values behind:

| Structure (SMILES) | melting point [°C] | pest or weed control at 250 g/ha (rice (Oryra sativa); [4]) [%] | pest or weed control at 250 g/ha [1, 5] [%] | pest or weed control at 250 g/ha [2, 6] [%] | pest or weed control at 250 g/ha [3, 7] [%] | pest or weed control at 250 g/ha (rice (Oryra sativa); [8]) [%] | pest or weed control at 250 g/ha [1, 9] [%] | pest or weed control at 250 g/ha [2, 10] [%] | pest or weed control at 250 g/ha [3, 11] [%] | pest or weed control at 250 g/ha (rice (Oryra sativa); 360 h, visually evaluated after 13 to 15 d, read-out: Plant response rating, Rice (0 to 100 scale where 0 is no effect and 100 is complete control)) [%] | pest or weed control at 250 g/ha ([1]; 360 h, visually evaluated after 13 to 15 d, read-out: Plant response rating, Barnyardgrass (0 to 100 scale where 0 is no effect and 100 is complete control)) [%] | pest or weed control at 250 g/ha ([2]; 360 h, visually evaluated after 13 to 15 d, read-out: Plant response rating, Ducksalad (0 to 100 scale where 0 is no effect and 100 is complete control)) [%] | pest or weed control at 250 g/ha ([3]; 360 h, visually evaluated after 13 to 15 d, read-out: Plant response rating, Sedge, Umbrella (0 to 100 scale where 0 is no effect and 100 is complete control)) [%] |
| --- | --- | --- | --- | --- | --- | --- | --- | --- | --- | --- | --- | --- | --- |
| Cc1cc([C@H]2CN(C)C(=O)[C@@H]2C(=O)Nc2cccc(F)c2F)on1 [Compound 1196] | 144 to 148 | 0 | 0 | 30 | 0 | – | – | – | – | – | – | – | – |
| CCc1ccccc1NC(=O)[C@H]1C(=O)N(C)C[C@@H]1c1ccc(C(F)(F)F)cc1 [Compound 935] | 116 to 119 | – | – | – | – | 0 | 0 | 70 | 0 | – | – | – | – |
| CN1C[C@H](c2ccc(C(F)(F)F)cc2)[C@@H](C(=O)Nc2cccc(F)c2Cl)C1=O [Compound 938] | 169 to 172 | – | – | – | – | 0 | 40 | 60 | 0 | – | – | – | – |
| CN1CC(c2cccc(OC/C=C/Cl)c2)C(C(=O)Nc2cccc(F)c2F)C1=O (stereo not drawn) [Compound 772] | 146 to 150 | – | – | – | – | 0 | 0 | 75 | 0 | – | – | – | – |
| O=C1NC[C@H](c2nccc(C(F)(F)F)n2)[C@H]1C(=O)Nc1ccccc1F [Compound 1304] | 166 to 170 | 0 | 0 | 0 | 0 | – | – | – | – | – | – | – | – |

— patent US12077503B2, “Substituted cyclic amides and their use as herbicides” (FMC CORPORATION, priority 2015, dated 2024)
